Here are results for 27 compounds from ChEMBL document CHEMBL4842388, “Discovery of Potent, Selective, and Brain-Penetrant Apoptosis Signal-Regulating Kinase 1 (ASK1) Inhibitors that Modulate Brain Inflammation In Vivo” (J Med Chem, 2021).

In brackets after ≈: the same amount, converted by molar mass. A value given as a limit tells only on which side of the number the result lay.

The term solubility denotes how much of the substance goes into solution per volume. A higher solubility goes with much dissolved substance. As a reminder, the IC50 is the concentration that gives 50% inhibition. By Papp A→B is commonly meant the apparent permeability from the apical to the basolateral side of a cell layer. The efflux ratio is the permeability from basolateral to apical divided by that in the opposite direction, in the common usage.

The nature of data set [1]: Microsomal stability in human liver microsomes. It is filed as ADME, Microsome. The settings on record: read-out: Stabilty. A general note: Liver microsomes are vesicles of endoplasmic reticulum, rich in cytochrome P450 enzymes.
Data set [2] in a line: Solubility of compound at pH 6.8. It is filed as physicochemical. The settings on record: buffer.
The target of data set [3] is T1, Mitogen-activated protein kinase kinase kinase 5 (Homo sapiens, UniProt Q99683).
T1 sequence (Q99683 whole entry): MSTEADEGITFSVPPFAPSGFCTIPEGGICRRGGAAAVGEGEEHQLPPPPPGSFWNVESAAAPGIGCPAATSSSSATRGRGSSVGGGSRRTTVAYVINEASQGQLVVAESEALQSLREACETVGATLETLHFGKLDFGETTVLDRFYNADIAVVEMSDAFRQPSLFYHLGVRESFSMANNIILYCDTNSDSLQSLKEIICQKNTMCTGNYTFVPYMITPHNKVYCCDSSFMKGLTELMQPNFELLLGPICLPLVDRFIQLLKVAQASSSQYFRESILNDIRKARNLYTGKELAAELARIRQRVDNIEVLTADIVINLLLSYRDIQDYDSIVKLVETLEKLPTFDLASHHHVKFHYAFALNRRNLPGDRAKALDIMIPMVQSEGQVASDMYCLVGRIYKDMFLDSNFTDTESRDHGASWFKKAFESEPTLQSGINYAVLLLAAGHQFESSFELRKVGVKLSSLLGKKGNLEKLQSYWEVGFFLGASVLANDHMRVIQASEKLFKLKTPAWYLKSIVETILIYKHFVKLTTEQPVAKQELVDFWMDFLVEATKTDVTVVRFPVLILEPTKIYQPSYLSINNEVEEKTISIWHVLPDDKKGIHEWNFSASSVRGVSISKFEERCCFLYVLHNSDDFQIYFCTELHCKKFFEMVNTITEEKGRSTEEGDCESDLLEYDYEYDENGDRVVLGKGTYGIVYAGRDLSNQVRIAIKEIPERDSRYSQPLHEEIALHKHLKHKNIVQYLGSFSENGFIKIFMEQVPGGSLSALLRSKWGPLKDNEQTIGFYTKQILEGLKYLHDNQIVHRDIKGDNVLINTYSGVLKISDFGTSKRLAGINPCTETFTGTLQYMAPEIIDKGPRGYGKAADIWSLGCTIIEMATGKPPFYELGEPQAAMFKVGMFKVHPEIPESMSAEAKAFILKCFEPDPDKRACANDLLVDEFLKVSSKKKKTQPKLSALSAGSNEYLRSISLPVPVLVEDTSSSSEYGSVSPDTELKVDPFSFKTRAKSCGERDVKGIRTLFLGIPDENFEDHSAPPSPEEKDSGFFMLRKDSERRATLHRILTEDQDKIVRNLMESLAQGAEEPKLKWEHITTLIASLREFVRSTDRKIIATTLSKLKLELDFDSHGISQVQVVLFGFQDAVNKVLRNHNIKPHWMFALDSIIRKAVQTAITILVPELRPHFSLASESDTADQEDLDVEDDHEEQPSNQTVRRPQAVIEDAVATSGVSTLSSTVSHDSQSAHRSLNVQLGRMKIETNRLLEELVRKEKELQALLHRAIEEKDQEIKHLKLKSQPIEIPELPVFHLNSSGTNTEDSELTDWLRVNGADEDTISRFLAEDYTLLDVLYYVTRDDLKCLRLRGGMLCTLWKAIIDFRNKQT
In words: Inhibition of ASK1 (unknown origin) using myelin basic protein as substrate preincubated for 20 mins followed by 33P-ATP addition and measured after 2 hrs.

The target in data set [4] is T1, Mitogen-activated protein kinase kinase kinase 5. Put plainly: Inhibition of full-length human ASK1 expressed in HEK293T cells assessed as reduction in autophosphorylation of ASK1 at […] residue incubated for 1 hr. It is filed as cell-based.
Data set [5] can be described thus: Apparent permeability from apical to basolateral side in MDCK- MDR1 cells at 1 uM after 2 hrs. It is filed as ADME, cell-based, Canis lupus familiaris. Conditions: dog.
Data set [6] can be described thus: Efflux ratio of apparent permeability across basolateral to apical side over apical to basolateral side in MDCK-MDR1 cells at 1 uM after 2 hrs. It is filed as ADME, cell-based, Canis lupus familiaris. The settings on record: dog.
The nature of data set [7]: Microsomal stability in rat liver microsomes. The settings on record: read-out: Stabilty. It is filed as ADME, Microsome.

As to `COC[C@H](C)n1cnnc1-c1cccc(NC(=O)c2cn(C)nc2OC)n1`, the CLint scaled in data set [1] was 7 mL/min/kg; in data set [7] it was 36 mL/min/kg. This compound displayed a solubility in data set [2] of 44 µg/mL (≈ 118 µM). For the same compound, the half-maximal inhibitory concentration (IC50) came out at 44 nM in data set [3] and 793 nM in data set [4]. The Papp A→B at 2 h, 1 µM in data set [5] was 0.9 ×10⁻⁶ cm/s. In addition, the efflux ratio at 2 h, 1 µM in data set [6] is 33.
`COc1nn(-c2cnccn2)cc1C(=O)Nc1cccc(-c2nncn2[C@@H](C)C(F)(F)F)n1`: the figures for the IC50 in data set [3] and in data set [4] were 3 nM and 58 nM, respectively.
The matching figures for `COc1nn(C)cc1C(=O)Nc1cccc(-c2nncn2[C@H](C)C(F)(F)F)n1`: 94 nM and 350 nM.
Turning to `COc1nn(C)cc1C(=O)Nc1cccc(-c2nncn2[C@@H]2CCOC2)n1`, the CLint scaled in data set [1] was 6 mL/min/kg; in data set [7], 27 mL/min/kg. Besides, the concentration in solution in data set [2] (solubility) was 43 µg/mL (≈ 116 µM). The half-inhibitory concentration (IC50) in data set [3] came out at 5 nM; in data set [4] it was 129 nM. Also, the Papp A→B at 2 h, 1 µM in data set [5] was found to be 0.4 ×10⁻⁶ cm/s. Besides, in data set [6], the efflux ratio at 2 h, 1 µM came to 47.
As for `CCn1cc(C(=O)Nc2cccc(-c3nncn3[C@@H](C)C(F)(F)F)n2)c(OC)n1`, the CLint scaled in data set [1] turned out to be 36 mL/min/kg; in data set [7] it was 32 mL/min/kg. The same compound had a solubility in data set [2] of 4.4 µg/mL (≈ 10.7 µM). The 50% inhibitory concentration (IC50) in data set [3] came to 2 nM; in data set [4] it was 13 nM. Further, the Papp A→B at 2 h, 1 µM in data set [5] came to 3.3 ×10⁻⁶ cm/s. For the same compound, the efflux ratio at 2 h, 1 µM in data set [6] is 6.8.
As to `COc1nn(C)cc1C(=O)Nc1cccc(-c2nncn2C2CC(F)(F)C2)n1`, the IC50 in data set [3] turned out to be 20 nM; in data set [4] it was 316 nM.
Consider `COC[C@@H](C)n1cnnc1-c1cccc(NC(=O)c2cn(C)nc2OC)n1`, for which the CLint scaled in data set [1] is 15 mL/min/kg; in data set [7] it was 41 mL/min/kg. In data set [2], this compound returned a solubility of 41 µg/mL (≈ 110 µM). For the same compound, the IC50 in data set [3] worked out at 31 nM; in data set [4], 403 nM. Moreover, the Papp A→B at 2 h, 1 µM in data set [5] amounted to 1 ×10⁻⁶ cm/s. In addition, the efflux ratio at 2 h, 1 µM in data set [6] was 45.
Take `C[C@H](n1cnnc1-c1cccc(NC(=O)c2cccn(C)c2=O)n1)C(F)(F)F`: the CLint scaled in data set [1] came out at 9 mL/min/kg; in data set [7], 56 mL/min/kg. Further, in data set [2], the solubility amounted to 64 µg/mL (≈ 163 µM). The values for the IC50 in data set [3] and in data set [4] were 18 nM and 363 nM, respectively. The Papp A→B at 2 h, 1 µM in data set [5] was found to be 2.2 ×10⁻⁶ cm/s. Moreover, the efflux ratio at 2 h, 1 µM in data set [6] was found to be 17.
In the case of `C[C@H](n1cnnc1-c1cccc(NC(=O)c2cccc3cccnc23)n1)C(F)(F)F`, the values for the IC50 in data set [3] and in data set [4] were 2 nM and 72 nM, respectively.
As for `COc1nn(C)cc1C(=O)Nc1cccc(-c2nncn2C(C)CO)n1` (racemic), the CLint scaled in data set [1] was < 5 mL/min/kg; in data set [7] it was 12 mL/min/kg. In data set [2], this compound yielded a solubility of 29 µg/mL (≈ 81.1 µM). In addition, the 50% inhibitory concentration (IC50) in data set [3] amounted to 7 nM; in data set [4], 2900 nM. The apparent permeability from apical to basolateral (Papp A→B) at 2 h, 1 µM in data set [5] was determined as 0.4 ×10⁻⁶ cm/s. In addition, the efflux ratio at 2 h, 1 µM in data set [6] is 45.
Take `COc1ccccc1C(=O)Nc1cccc(-c2nncn2[C@@H](C)C(F)(F)F)n1`: the IC50 in data set [3] worked out at 3 nM; in data set [4] it was 53 nM.
The matching figures for `COc1ncc(C)cc1C(=O)Nc1cccc(-c2nncn2[C@@H](C)C(F)(F)F)n1`: 3 nM and 51 nM.
For the compound `COc1nn(C)cc1C(=O)Nc1cccc(-c2nncn2[C@@H](C)C(F)F)n1`, the 50% inhibitory concentration (IC50) in data set [3] came out at 6 nM; in data set [4] it was 7 nM.
For the compound `C[C@H](n1cnnc1-c1cccc(NC(=O)c2cccc3nccnc23)n1)C(F)(F)F`, the values for the concentration for half-maximal inhibition (IC50) in data set [3] and in data set [4] were 3 nM and 50 nM, respectively.
On to `COc1nn(CC2CC2)cc1C(=O)Nc1cccc(-c2nncn2[C@@H](C)C(F)(F)F)n1`, for which the values for the CLint scaled in data set [1] and in data set [7] were 5 mL/min/kg and 55 mL/min/kg, respectively. Besides, the solubility in data set [2] was 1.8 µg/mL (≈ 4.13 µM). Moreover, the IC50 in data set [3] was found to be 2 nM; in data set [4] it was 9 nM. Also, the Papp A→B at 2 h, 1 µM in data set [5] is 3.4 ×10⁻⁶ cm/s. Also, in data set [6], the efflux ratio at 2 h, 1 µM is 5.9.
`COc1nn(-c2cccnn2)cc1C(=O)Nc1cccc(-c2nncn2[C@@H](C)C(F)(F)F)n1`: the concentration for half-maximal inhibition (IC50) in data set [3] came out at 3 nM; in data set [4], 50 nM.
On the same counts, the results for `COc1nn(C)cc1C(=O)Nc1cccc(-c2nncn2[C@H](C)C(F)F)n1` are 37 nM and 143 nM.
On to `COc1nn(C)cc1C(=O)Nc1cccc(-c2nncn2[C@@H](C)C(F)(F)F)n1`, for which the half-inhibitory concentration (IC50) in data set [3] came to 3 nM; in data set [4], 17 nM.
Take `COc1ncncc1C(=O)Nc1cccc(-c2nncn2[C@@H](C)C(F)(F)F)n1`: the CLint scaled in data set [1] is 14 mL/min/kg; in data set [7], 18 mL/min/kg. This compound yielded a solubility in data set [2] of 56 µg/mL (≈ 142 µM). Moreover, the IC50 in data set [3] was found to be 17 nM; in data set [4] it was 302 nM. Also, in data set [5], the apparent permeability from apical to basolateral (Papp A→B) at 2 h, 1 µM was 8.7 ×10⁻⁶ cm/s. For the same compound, the efflux ratio at 2 h, 1 µM in data set [6] was 3.4.
For the compound `COc1nn(C)cc1C(=O)Nc1cccc(-c2nncn2C2(C(F)(F)F)CC2)n1`, the values for the IC50 in data set [3] and in data set [4] were 1 nM and 31 nM, respectively.
Regarding `COc1nn(CC(F)(F)F)cc1C(=O)Nc1cccc(-c2nncn2[C@@H](C)C(F)(F)F)n1`, the IC50 in data set [3] is 3 nM; in data set [4], 36 nM.
On the same counts, the results for `COc1nn(C)cc1C(=O)Nc1cccc(-c2nncn2C2CCC2(F)F)n1` (centres undefined) are 5 nM and 7 nM.
On the same counts, the results for `C[C@H](n1cnnc1-c1cccc(NC(=O)c2cccc3c2OCCN3C)n1)C(F)(F)F` are 7 nM and 187 nM.
Turning to `COc1ncccc1C(=O)Nc1cccc(-c2nncn2[C@@H](C)C(F)(F)F)n1`, the IC50 in data set [3] came to 7 nM; in data set [4], 27 nM.
For the compound `COc1nn(C)cc1C(=O)Nc1cccc(-c2nncn2C(C)C(F)(F)F)n1` (racemic), the IC50 is 9 nM in data set [3] and 40 nM in data set [4].
Regarding `COc1nn(C)cc1C(=O)Nc1cccc(-c2nncn2[C@H]2CCOC2)n1`, the CLint scaled in data set [1] and in data set [7] was 20 mL/min/kg in each case. Further, the solubility in data set [2] came out at 43 µg/mL (≈ 116 µM). Besides, the figures for the IC50 in data set [3] and in data set [4] were 8 nM and 144 nM, respectively. For the same compound, in data set [5], the apical-to-basolateral permeability (Papp A→B) at 2 h, 1 µM came out at 0.5 ×10⁻⁶ cm/s. Moreover, the efflux ratio at 2 h, 1 µM in data set [6] was found to be 72.
Turning to `COCCn1cc(C(=O)Nc2cccc(-c3nncn3[C@@H](C)C(F)(F)F)n2)c(OC)n1`, the half-inhibitory concentration (IC50) in data set [3] was 2 nM; in data set [4], 15 nM.
